Data as given in patent US10294234B2, “HIV inhibitor compounds” (priority 2017, dated 2019).
Read-outs that look alike come from different tables or passages of the source.

Columns and labels:
[1] = test system: HIV-1 (IIIB) in MT-4 cells; assay: MT-4 HIV assay; type: cell-based; details: Human immunodeficiency virus 1, MT4, 120 h; HIV-1 (IIIB), MT-4 cells, 5 days, Cell Titer Glo; read-out: EC50
Summary of the method: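 MT-4 cells infected with HIV-1 IIIB (1:250 stock dilution) were incubated with 1:3 serially diluted compounds in RPMI with 10% FBS for 5 days at 37 °C. Cell Titer Glo luminescence was the readout. Plates included mock-infected wells, no-drug wells and 5 uM AZT controls.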

[2] = Summary of the method: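 Dog, rat and human liver microsomes (0.5 mg/mL) with NADPH-regenerating cofactor; test compound 1 uM, duplicates. Timepoints 2, 12, 25, 45, 65 min; protein removed by centrifugation, supernatant analysed by LC/MS/MS. Clint from t1/2.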

SMILES	EC50 [1] [nM]	Human Pred Cl. ([2]; human, microsomes) [L/H/kg]	Rat. Pred. Cl. ([2]; rat, microsomes) [L/H/kg]	Human Pred Cl. ([2]; human liver microsomes 0.5 mg/mL, 1 uM compound, NADPH) [L/H/kg]	Rat. Pred. Cl. ([2]; rat liver microsomes 0.5 mg/mL, 1 uM compound, NADPH) [L/H/kg]	Dog. Pred. Cl. ([2]; dog, microsomes) [L/H/kg]
COC(=O)N[C@H](C(=O)N[C@@H](Cc1ccc(C#Cc2ccc(N3CC4CCC(C3)N4C)nc2)cc1)[C@@H](O)CN(Cc1c(F)cc(-c2cnn(C(F)F)c2)cc1F)NC(=O)[C@@H](NC(=O)OC)C(C)(C)C(F)(F)F)C(C)(C)C(F)(F)F [Example 168, Methyl ((5S,8S,9S,14S)-11-(4-(1-(difluoromethyl)-1H-pyrazol-4-yl)-2,6-difluorobenzyl)-16,16,16-trifluoro-9-hydroxy-15,15-dimethyl-8-(4-((6-(8-methyl-3,8-diazabicyclo[3.2.1]octan-3-yl)pyridin-3-yl)ethynyl)benzyl)-3,6,13-trioxo-5-(1,1,1-trifluoro-2-methylpropan-2-yl)-2-oxa-4,7,11,12-tetraazahexadecan-14-yl)carbamate]	5.48	0.19	2.42	–	–	–
COC(=O)N[C@H](C(=O)N[C@@H](Cc1ccc(C#Cc2ccc(N3C[C@@H]4C[C@H]3CN4C3COC3)nc2)cc1)[C@@H](O)CN(Cc1c(F)cc(-c2ccn(C(F)F)n2)cc1F)NC(=O)[C@@H](NC(=O)OC)C(C)(C)C(F)(F)F)C(C)(C)C(F)(F)F [Example 174, Methyl ((5S,8S,9S,14S)-11-(4-(1-(difluoromethyl)-1H-pyrazol-3-yl)-2,6-difluorobenzyl)-16,16,16-trifluoro-9-hydroxy-15,15-dimethyl-8-(4-((6-((1S,4S)-5-(oxetan-3-yl)-2,5-diazabicyclo[2.2.1]heptan-2-yl)pyridin-3-yl)ethynyl)benzyl)-3,6,13-trioxo-5-(1,1,1-trifluoro-2-methylpropan-2-yl)-2-oxa-4,7,11,12-tetraazahexadecan-14-yl)carbamate]	2.33	–	–	0.18	0.69	–
COC(=O)N[C@H](C(=O)N[C@@H](Cc1ccc(C#Cc2ccc(N3CC4CC(C3)N4C3COC3)nc2)cc1)[C@@H](O)CN(Cc1c(F)cc(-c2ccccn2)cc1F)NC(=O)[C@@H](NC(=O)OC)C(C)(C)C(F)(F)F)C(C)(C)C(F)(F)F [Example 175, Methyl ((5S,8S,9S,14S)-11-(2,6-difluoro-4-(pyridin-2-yl)benzyl)-16,16,16-trifluoro-9-hydroxy-15,15-dimethyl-8-(4-((6-(6-(oxetan-3-yl)-3,6-diazabicyclo[3.1.1]heptan-3-yl)pyridin-3-yl)ethynyl)benzyl)-3,6,13-trioxo-5-(1,1,1-trifluoro-2-methylpropan-2-yl)-2-oxa-4,7,11,12-tetraazahexadecan-14-yl)carbamate]	2.17	0.67	0.7	–	–	–
COC(=O)N[C@H](C(=O)N[C@@H](Cc1ccc(C#Cc2ccc(N3CC4COCC(C3)N4C3COC3)nc2)cc1)[C@@H](O)CN(Cc1c(F)cc(-c2ccccn2)cc1F)NC(=O)[C@@H](NC(=O)OC)C(C)(C)C(F)(F)F)C(C)(C)C(F)(F)F [Example 179, Methyl ((5S,8S,9S,14S)-11-(2,6-difluoro-4-(pyridin-2-yl)benzyl)-16,16,16-trifluoro-9-hydroxy-15,15-dimethyl-8-(4-((6-(9-(oxetan-3-yl)-3-oxa-7,9-diazabicyclo[3.3.1]nonan-7-yl)pyridin-3-yl)ethynyl)benzyl)-3,6,13-trioxo-5-(1,1,1-trifluoro-2-methylpropan-2-yl)-2-oxa-4,7,11,12-tetraazahexadecan-14-yl)carbamate]	3.55	0.33	0.27	–	–	–
COC(=O)N[C@H](C(=O)N[C@@H](Cc1ccc(C#Cc2ccc(N3CC4CCC(C3)N4C3COC3)nc2)cc1)[C@@H](O)CN(Cc1c(F)cc(-c2ccn(C(F)F)n2)cc1F)NC(=O)[C@@H](NC(=O)OC1COC1)C(C)(C)C)C(C)(C)C(F)(F)F [Example 184, methyl ((2S)-1-(((2S,3S)-4-(1-(4-(1-(difluoromethyl)-1H-pyrazol-3-yl)-2,6-difluorobenzyl)-2-((S)-3,3-dimethyl-2-(((oxetan-3-yloxy)carbonyl)amino)butanoyl)hydrazinyl)-3-hydroxy-1-(4-((6-(8-(oxetan-3-yl)-3,8-diazabicyclo[3.2.1]octan-3-yl)pyridin-3-yl)ethynyl)phenyl)butan-2-yl)amino)-4,4,4-trifluoro-3,3-dimethyl-1-oxobutan-2-yl)carbamate]	3.66	<0.11	<0.18	–	–	–
CCC(=O)N[C@H](C(=O)NN(Cc1c(F)cc(-c2ccn(C(F)F)n2)cc1F)C[C@H](O)[C@H](Cc1ccc(C#Cc2ccc(N3CC4CCC(C3)N4C3COC3)nc2)cc1)NC(=O)[C@@H](NC(=O)OC)C(C)(C)C(F)(F)F)C(C)(C)C [Example 185, Methyl ((2S)-1-(((2S,3S)-4-(1-(4-(1-(difluoromethyl)-1H-pyrazol-3-yl)-2,6-difluorobenzyl)-2-((S)-3,3-dimethyl-2-propionamidobutanoyl)hydrazinyl)-3-hydroxy-1-(4-((6-(8-(oxetan-3-yl)-3,8-diazabicyclo[3.2.1]octan-3-yl)pyridin-3-yl)ethynyl)phenyl)butan-2-yl)amino)-4,4,4-trifluoro-3,3-dimethyl-1-oxobutan-2-yl)carbamate]	2.58	0.32	0.31	–	–	–
COC(=O)N[C@H](C(=O)N[C@@H](Cc1ccc(C#Cc2cnc(N3CC4CCC(C3)N4C3COC3)nc2)cc1)[C@@H](O)CN(Cc1c(F)cc(-c2ccn(C(F)F)n2)cc1F)NC(=O)[C@@H](NC(=O)C1CC1)C(C)(C)C(F)(F)F)C(C)(C)C(F)(F)F [Example 186, Methyl ((2S)-1-(((2S,3S)-4-(2-((S)-2-(cyclopropanecarboxamido)-4,4,4-trifluoro-3,3-dimethylbutanoyl)-1-(4-(1-(difluoromethyl)-1H-pyrazol-3-yl)-2,6-difluorobenzyl) hydrazinyl)-3-hydroxy-1-(4-((2-(8-(oxetan-3-yl)-3,8-diazabicyclo[3.2.1]octan-3-yl)pyrimidin-5-yl)ethynyl)phenyl)butan-2-yl)amino)-4,4,4-trifluoro-3,3-dimethyl-1-oxobutan-2-yl)carbamate]	4.74	<0.11	–	–	–	–
COC(=O)N[C@H](C(=O)NN(Cc1c(F)cc(-c2ccn(C(F)F)n2)cc1F)C[C@H](O)[C@H](Cc1ccc(-c2cnc(N3CC4CCC(C3)N4C3COC3)nc2)cc1)NC(=O)[C@@H](NC(=O)OC)C(C)(C)C(F)(F)F)C(C)(C)C [Example 192, methyl ((5S,8S,9S,14S)-11-(4-(1-(difluoromethyl)-1H-pyrazol-3-yl)-2,6-difluorobenzyl)-9-hydroxy-15,15-dimethyl-8-(4-(2-(8-(oxetan-3-yl)-3,8-diazabicyclo[3.2.1]octan-3-yl)pyrimidin-5-yl)benzyl)-3,6,13-trioxo-5-(1,1,1-trifluoro-2-methylpropan-2-yl)-2-oxa-4,7,11,12-tetraazahexadecan-14-yl)carbamate]	2.89	0.22	0.36	–	–	1.04
COC(=O)N[C@H](C(=O)N[C@@H](Cc1ccc(-c2ccc(N3CC4CCC(C3)N4C3COC3)nc2)cc1)[C@@H](O)CN(Cc1c(F)cc(-c2ccn(CC(F)F)n2)cc1F)NC(=O)[C@@H](NC(=O)OC)C(C)(C)C(F)(F)F)C(C)(C)C(F)(F)F [Example 195, methyl ((5S,8S,9S,14S)-11-(4-(1-(2,2-difluoroethyl)-1H-pyrazol-3-yl)-2,6-difluorobenzyl)-16,16,16-trifluoro-9-hydroxy-15,15-dimethyl-8-(4-(6-(8-(oxetan-3-yl)-3,8-diazabicyclo[3.2.1]octan-3-yl)pyridin-3-yl)benzyl)-3,6,13-trioxo-5-(1,1,1-trifluoro-2-methylpropan-2-yl)-2-oxa-4,7,11,12-tetraazahexadecan-14-yl)carbamate]	2.76	0.12	0.52	–	–	–
COC(=O)N[C@H](C(=O)N[C@@H](Cc1ccc(-c2cnc(N3CC4CCC(C3)N4C3COC3)nc2)cc1)[C@@H](O)CN(Cc1c(F)cc(-c2ccn(CC(F)F)n2)cc1F)NC(=O)[C@@H](NC(=O)OC)C(C)(C)C(F)(F)F)C(C)(C)C(F)(F)F [Example 197, Methyl ((5S,8S,9S,14S)-11-(4-(1-(2,2-difluoroethyl)-1H-pyrazol-3-yl)-2,6-difluorobenzyl)-16,16,16-trifluoro-9-hydroxy-15,15-dimethyl-8-(4-(2-(8-(oxetan-3-yl)-3,8-diazabicyclo[3.2.1]octan-3-yl)pyrimidin-5-yl)benzyl)-3,6,13-trioxo-5-(1,1,1-trifluoro-2-methylpropan-2-yl)-2-oxa-4,7,11,12-tetraazahexadecan-14-yl)carbamate]	2.61	<0.11	0.32	–	–	–
COC(=O)N[C@H](C(=O)N[C@@H](Cc1ccc(-c2cnc(N3CC4CCC(C3)N4C3COC3)nc2)cc1)[C@@H](O)CN(Cc1c(F)cc(-c2ccn(C3CC3)n2)cc1F)NC(=O)[C@@H](NC(=O)OC)C(C)(C)C(F)(F)F)C(C)(C)C(F)(F)F [Example 198, methyl ((5S,8S,9S,14S)-11-(4-(1-cyclopropyl-1H-pyrazol-3-yl)-2,6-difluorobenzyl)-16,16,16-trifluoro-9-hydroxy-15,15-dimethyl-8-(4-(2-(8-(oxetan-3-yl)-3,8-diazabicyclo[3.2.1]octan-3-yl)pyrimidin-5-yl)benzyl)-3,6,13-trioxo-5-(1,1,1-trifluoro-2-methylpropan-2-yl)-2-oxa-4,7,11,12-tetraazahexadecan-14-yl)carbamate]	2.19	<0.11	0.33	–	–	–
